Laboratory results as given in US20040253675A1, “Method for GPCR assay with a coexpressed Galpha protein” (Hitachi, Ltd., priority 2003, published 2004).

What was measured:
[1] = target: H2 receptor (Homo sapiens, UniProt P25021); conditions: Xenopus oocyte
From the text: Oocytes removed from a female Xenopus were selected by a conventional method. RNA encoding the H1 and H2 receptors, M1 to M5 receptors, δ opioid receptors, or mGlu1 receptors that were synthesized in vitro were transfected into the selected oocyte together with RNA encoding a chimeric Gqα subunit constituted by a portion of the G11 protein α subunit and a portion of the G14 protein α subunit that was similarly synthesized. As a control, an oocyte to which RNA of the chimeric Gqα subunit was not to be transfected was prepared. Thereafter, oocytes were cultured.
The cultured oocytes were clamped at −60 mV by TEVC. […] The occurrence of Ca-dependent Cl response was then assayed.
RNA encoding the H2 receptor was transfected in the oocytes. Simultaneously or 24 hours thereafter, RNA encoding the chimeric Gqα subunit constituted by a portion of the G11α subunit and a portion of the G14α subunit was transfected therein. Thereafter, the ligand responses of these oocytes were assayed by the method described in Example 1.

[2] = test system: M4 receptor; experiment: Ca-dependent Cl response in Xenopus oocytes coexpressing M4 receptor and chimeric Gqα subunit (G11α/G14α); format: cell-based; conditions: Xenopus oocyte, chimeric Gqα subunit coexpressed, clamped at −60 mV by TEVC, FIG. 5
Protocol: They were subjected to coexpression in Xenopus oocytes. […] Res. Commun. 201 (2), 894-901 (1994).
Thereafter, oocytes were cultured.

Chain of H2 receptor (P25021 whole entry): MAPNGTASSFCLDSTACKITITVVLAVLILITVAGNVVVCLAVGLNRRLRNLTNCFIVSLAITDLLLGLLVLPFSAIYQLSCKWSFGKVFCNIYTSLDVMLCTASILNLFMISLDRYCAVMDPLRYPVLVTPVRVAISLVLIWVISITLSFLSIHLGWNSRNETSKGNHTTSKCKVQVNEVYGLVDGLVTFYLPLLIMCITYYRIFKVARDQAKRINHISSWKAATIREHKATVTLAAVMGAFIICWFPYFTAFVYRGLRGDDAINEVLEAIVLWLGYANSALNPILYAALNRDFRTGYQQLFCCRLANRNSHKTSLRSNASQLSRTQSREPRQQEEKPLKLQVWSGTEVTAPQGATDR

In the case of `NCCc1c[nH]cn1` [histamine], the “response generated by ligand, chimeric Gqα RNA transfected 24 hours after GPCR RNA compared with simultaneous transfection” value ([1]; 10 μM ligand, FIG. 6) is reported as “greatly increased” and the “response generated by ligand stimulus at various concentration levels” value ([1]; chimeric Gqα subunit coexpressed, clamped at −60 mV by TEVC, FIG. 5) is reported as “correlations between ligand concentration and size of response”.

`CC(=O)OCC[N+](C)(C)C` [Ach] was tested, and the “response generated by ligand stimulus at various concentration levels” value [2] was “correlations between ligand concentration and size of response”.
